The target in experiment [1] is T1, 5-hydroxytryptamine receptor 1A (Homo sapiens) (UniProt P08908).
T1 sequence (whole entry): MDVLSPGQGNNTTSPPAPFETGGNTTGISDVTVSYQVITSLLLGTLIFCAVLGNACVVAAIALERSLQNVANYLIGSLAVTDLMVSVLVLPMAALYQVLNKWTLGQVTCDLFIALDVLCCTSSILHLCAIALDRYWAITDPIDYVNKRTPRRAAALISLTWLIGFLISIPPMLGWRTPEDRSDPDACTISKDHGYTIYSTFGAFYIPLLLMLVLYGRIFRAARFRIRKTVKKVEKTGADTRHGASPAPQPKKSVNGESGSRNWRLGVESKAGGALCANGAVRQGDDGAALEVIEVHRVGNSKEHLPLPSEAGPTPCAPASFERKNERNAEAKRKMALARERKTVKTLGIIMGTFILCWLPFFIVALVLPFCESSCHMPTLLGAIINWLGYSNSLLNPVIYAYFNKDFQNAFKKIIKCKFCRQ
Briefly: Displacement of [3H]8-OH-DPAT from 5HT1A receptor at 10 uM. On the technique in general: Displacement assays read how much labelled ligand stays bound in the presence of the test substance.

For experiment [2], the target named is D(2) dopamine receptor (Homo sapiens) (UniProt P14416). The experiment can be described thus: Displacement of [3H]YM091512 from dopamine D2 receptor at 10 uM.
In experiment [3] the test system is Mycobacterium tuberculosis. The experiment can be described thus: Antitubercular activity against Mycobacterium tuberculosis H37Rv by MABA assay. The format is functional. (The colour change of resazurin is a common sign of viable cells or microbes.)
Experiment [4] deals with T2, 5-hydroxytryptamine receptor 2C (Homo sapiens) (UniProt P28335).
T2 sequence (whole entry): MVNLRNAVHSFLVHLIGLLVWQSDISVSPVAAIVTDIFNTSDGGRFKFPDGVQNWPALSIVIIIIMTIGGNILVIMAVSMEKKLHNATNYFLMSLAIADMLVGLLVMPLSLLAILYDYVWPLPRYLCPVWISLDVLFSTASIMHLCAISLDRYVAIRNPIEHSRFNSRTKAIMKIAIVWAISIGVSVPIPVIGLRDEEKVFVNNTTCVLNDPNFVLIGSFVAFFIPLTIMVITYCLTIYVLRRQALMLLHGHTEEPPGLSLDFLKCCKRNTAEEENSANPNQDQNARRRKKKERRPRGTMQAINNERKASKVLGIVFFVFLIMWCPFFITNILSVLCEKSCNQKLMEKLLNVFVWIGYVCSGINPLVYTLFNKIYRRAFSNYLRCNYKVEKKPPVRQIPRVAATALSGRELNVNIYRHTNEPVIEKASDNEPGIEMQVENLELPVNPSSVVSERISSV
The experiment can be described thus: Displacement of [3H]mesulergine from 5HT2C receptor at 10 uM.

Values after ≈ are worked out from the molar mass of the structure shown. Values joined by “and” are separate entries in the source; they are usually repeats but may differ in a detail not shown here. Equal entries are not always repeated.

Broadly, the MIC is the lowest concentration that inhibits growth of the organism.

D(2) dopamine receptor (Homo sapiens), sequence (P14416 whole entry): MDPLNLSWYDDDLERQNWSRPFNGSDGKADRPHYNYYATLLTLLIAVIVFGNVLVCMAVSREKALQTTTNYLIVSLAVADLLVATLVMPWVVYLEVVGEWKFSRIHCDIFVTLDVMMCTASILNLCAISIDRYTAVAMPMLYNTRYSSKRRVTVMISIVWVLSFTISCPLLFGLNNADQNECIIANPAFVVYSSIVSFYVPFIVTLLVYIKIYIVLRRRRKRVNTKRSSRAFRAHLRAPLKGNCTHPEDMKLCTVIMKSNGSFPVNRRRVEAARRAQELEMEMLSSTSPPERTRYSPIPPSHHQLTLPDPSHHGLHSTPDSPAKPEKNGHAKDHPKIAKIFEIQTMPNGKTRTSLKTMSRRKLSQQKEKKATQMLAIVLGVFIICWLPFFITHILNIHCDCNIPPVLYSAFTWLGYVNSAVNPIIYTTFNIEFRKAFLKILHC

Consider `CN1CCCC(CN2c3ccccc3Sc3ccc(-c4ccccc4)cc32)C1` (centres undefined), for which the Activity in experiment [1] worked out at 1%; in experiment [2], 97%; in experiment [4], 14%. This molecule returned an MIC in experiment [3] of 4.5 µg/mL (≈ 11.6 µM).

Consider `COc1ccc2c(c1)Sc1ccccc1N2CC1CCCN(C)C1` (centres undefined), for which the Activity amounted to 0% in experiment [1], 75% in experiment [2] and 41% in experiment [4]. Also, the minimal inhibitory concentration (MIC) in experiment [3] is over 20 µg/mL.

For the molecule `CC(CO)NCc1ccc(CN2c3ccccc3Sc3ccc(C(F)(F)F)cc32)cc1` (centres undefined), the Activity came out at 24% in experiment [1], 93% in experiment [2] and 59% in experiment [4]. In addition, in experiment [3], it took 6.4 µg/mL (≈ 14.4 µM) to inhibit growth (MIC).

With `FC(F)(F)c1ccc2c(c1)N(Cc1ccc(CNc3ccccn3)cc1)c1ccccc1S2`, the Activity in experiment [1] is 0%; in experiment [2], 90%; in experiment [4], 53%. In experiment [3], this molecule had an MIC of over 10 µg/mL.

`FC(F)(F)c1ccc2c(c1)N(Cc1ccc(CNc3cccc(Oc4ccccc4)c3)cc1)c1ccccc1S2`: the Activity stood at 0% in experiment [1], 26% in experiment [2] and 0% in experiment [4]. For the same molecule, in experiment [3], the MIC was over 20 µg/mL.

For the molecule `CC1CN(CCCN2c3ccccc3Sc3ccc(C(F)(F)F)cc32)CC(C)O1` (centres undefined), the Activity is 98% in experiment [1], 99% in experiment [2] and 30% in experiment [4]. The molecule also showed an MIC in experiment [3] of over 20 µg/mL.

Regarding `CN(C)CCCN1c2ccccc2Sc2ccc(Cl)cc21.Cl` [CHLORPROMAZINE HYDROCHLORIDE], the Activity worked out at 44% in experiment [1], 96% in experiment [2] and 86% in experiment [4]. In experiment [3], this molecule registered an MIC of 6 µg/mL.

On to `CN1CCN(Cc2ccc(CN3c4ccccc4Sc4ccc(C(F)(F)F)cc43)cc2)CC1`, for which the figures for the Activity in experiment [1], in experiment [2] and in experiment [4] were 0%, 14% and 0%, respectively. The molecule also yielded an MIC in experiment [3] of 15 µg/mL (≈ 31.9 µM).

In the case of `FC(F)(F)c1ccc2c(c1)N(CCCNc1ccccn1)c1ccccc1S2`, the Activity worked out at 45% in experiment [1], 85% in experiment [2] and 93% in experiment [4]. The molecule also had an MIC in experiment [3] of 20 µg/mL (≈ 49.8 µM).

As for `OC1CCN(Cc2ccc(CN3c4ccccc4Sc4ccc(C(F)(F)F)cc43)cc2)C1` (centres undefined), the Activity in experiment [1] stood at 0%; in experiment [2], 79%; in experiment [4] it was 65%. This molecule had an MIC in experiment [3] of 8.4 µg/mL (≈ 18.4 µM).

`CC1CN(Cc2ccc(CN3c4ccccc4Sc4ccc(C(F)(F)F)cc43)cc2)CC(C)O1` (centres undefined): the Activity came to 0% in experiment [1], 75% in experiment [2] and 7% in experiment [4]. Moreover, in experiment [3], the MIC is over 20 µg/mL.

`CN1CCCC(CN2c3ccccc3Sc3cc(-c4ccccc4)ccc32)C1` (centres undefined): the Activity was 0% in experiment [1], 96% in experiment [2] and 58% in experiment [4]. Further, the MIC in experiment [3] was 2.1 µg/mL (≈ 5.43 µM).

With `CCN(CC)CCCN1c2ccccc2Sc2ccc(C(F)(F)F)cc21`, the Activity in experiment [1] was found to be 63%; in experiment [2], 100%; in experiment [4], 94%. The minimum inhibitory concentration (MIC) in experiment [3] was found to be 15 µg/mL (≈ 39.4 µM).

Take `FC(F)(F)c1ccc2c(c1)N(CCCNCc1ccccc1)c1ccccc1S2`: the Activity in experiment [1] worked out at 61%; in experiment [2], 97%; in experiment [4], 85%. For the same molecule, inhibition of growth in experiment [3] (MIC) required 4.2 µg/mL (≈ 10.1 µM).

For `CN1CCCC(CN2c3ccccc3Sc3ccc(C(F)(F)F)cc32)C1` (centres undefined), the Activity amounted to 5% in experiment [1], 87% in experiment [2] and 56% in experiment [4]. In experiment [3], this molecule came in with an MIC of 7.2 µg/mL (≈ 19 µM).

`CN(Cc1ccccc1)Cc1ccc(CN2c3ccccc3Sc3ccc(C(F)(F)F)cc32)cc1`: the Activity in experiment [1] stood at 4%; in experiment [2], 66%; in experiment [4], 0%. Further, in experiment [3], the MIC is over 20 µg/mL.

On to `Cc1ccc2c(c1)Sc1ccccc1N2CC1CCCN(C)C1` (centres undefined), for which the Activity came out at 0% in experiment [1], 93% in experiment [2] and 26% in experiment [4]. For the same molecule, the MIC in experiment [3] is 7.2 µg/mL (≈ 22.2 µM).

In the case of `FC(F)(F)c1ccc2c(c1)N(Cc1ccc(CNc3nccs3)cc1)c1ccccc1S2`, the Activity in experiment [1] is 0%; in experiment [2], 11%; in experiment [4], 0%. In addition, the MIC in experiment [3] was over 10 µg/mL.

`FC(F)(F)c1ccc2c(c1)N(CCCNc1cccc(Oc3ccccc3)c1)c1ccccc1S2`: the Activity in experiment [1] amounted to 0%; in experiment [2] it was 0%; in experiment [4], 5%. The same molecule had an MIC in experiment [3] of over 20 µg/mL.

With `CN1CCCC(CN2c3ccccc3Sc3cc(N4CCOCC4)ccc32)C1` (centres undefined), the Activity turned out to be 0% in experiment [1], 59% in experiment [2] and 7% in experiment [4]. This molecule also gave an MIC in experiment [3] of over 2 µg/mL.

In the case of `CC(CO)NCCCN1c2ccccc2Sc2ccc(C(F)(F)F)cc21` (centres undefined), the Activity was found to be 58% in experiment [1], 100% in experiment [2] and 91% in experiment [4]. Moreover, the MIC in experiment [3] worked out at 4.6 µg/mL (≈ 12 µM).

Take `FC(F)(F)c1ccc2c(c1)N(Cc1ccc(CNCc3ccccc3)cc1)c1ccccc1S2`: the Activity in experiment [1] turned out to be 0%; in experiment [2], 13%; in experiment [4] it was 0%. The same molecule returned an MIC in experiment [3] of over 20 µg/mL.

With `CCN(CC)Cc1ccc(CN2c3ccccc3Sc3ccc(C(F)(F)F)cc32)cc1`, the Activity in experiment [1] stood at 23%; in experiment [2], 97%; in experiment [4] it was 57%. In addition, in experiment [3], the MIC is over 10 µg/mL.

For `CN1CCCC(CN2c3ccccc3Sc3cc(Cl)ccc32)C1` (centres undefined), the Activity in experiment [1] was 0%; in experiment [2], 94%; in experiment [4], 67%. This molecule also came in with an MIC in experiment [3] of 14.3 µg/mL (≈ 41.5 µM).

As for `CN1CCCC(CN2c3ccccc3Sc3cc(F)ccc32)C1` (centres undefined), the Activity in experiment [1] is 7%; in experiment [2], 87%; in experiment [4] it was 89%. In addition, in experiment [3], the MIC amounted to 10.8 µg/mL (≈ 32.9 µM).

For the molecule `CN(CCCN1c2ccccc2Sc2ccc(C(F)(F)F)cc21)Cc1ccccc1`, the Activity in experiment [1] came to 31%; in experiment [2], 99%; in experiment [4], 68%. Further, the MIC in experiment [3] was over 20 µg/mL.

In turn, `CN1CCN(CCCN2c3ccccc3Sc3ccc(C(F)(F)F)cc32)CC1.Cl` displayed an MIC in experiment [3] of 6 µg/mL.

Regarding `FC(F)(F)c1ccc2c(c1)N(CCCN1c3ccccc3Sc3ccc(C(F)(F)F)cc31)c1ccccc1S2`, the Activity in experiment [1] stood at 67%; in experiment [2] it was 48%; in experiment [4], 83%. The molecule further yielded an MIC in experiment [3] of 2.3 µg/mL (≈ 4 µM).

Regarding `CN1CCCC(CN2c3ccccc3Sc3cccnc32)C1` (centres undefined), the Activity in experiment [1] came to 19%; in experiment [2] it was 86%; in experiment [4], 47%. The molecule also came in with an MIC in experiment [3] of over 10 µg/mL.

The molecule `CSc1ccc2c(c1)Sc1ccccc1N2CC1CCCN(C)C1` (centres undefined) returned an Activity in experiment [1] of 67%. In addition, the MIC in experiment [3] turned out to be 11.6 µg/mL (≈ 32.5 µM).

In experiment [3], `CN1CCN(CCCN2c3ccccc3Sc3ccc(C(F)(F)F)cc32)CC1` [TRIFLUOPERAZINE] registered an MIC of 7.6 µg/mL (≈ 18.7 µM).

On to `CN1CCCC(CN2c3ccccc3Sc3cnccc32)C1` (centres undefined), for which the MIC in experiment [3] was over 20 µg/mL.

On to `CN1CCN(CCCN2c3ccccc3Sc3ccc(C(F)(F)F)cc32)CC1`, for which the Activity in experiment [1] is 76% and 67%; in experiment [2], 100% and 98%; in experiment [4], 91% and 97%.

For `FC(F)(F)c1ccc2c(c1)N(Cc1ccc(CN3CCN(c4ncccn4)CC3)cc1)c1ccccc1S2`, the Activity in experiment [1] came out at 10%; in experiment [2], 72%; in experiment [4], 0%. In experiment [3], this molecule displayed an MIC of over 20 µg/mL.

For the molecule `FC(F)(F)c1ccc2c(c1)N(Cc1ccc(CN3c4ccccc4Sc4ccc(C(F)(F)F)cc43)cc1)c1ccccc1S2`, the Activity in experiment [1] is 0%; in experiment [2] it was 40%; in experiment [4] it was 0%. In experiment [3], the MIC was found to be 2 µg/mL (≈ 3.14 µM).

For `FC(F)(F)c1ccc2c(c1)N(CCCNc1nccs1)c1ccccc1S2`, the results for the Activity in experiment [1], in experiment [2] and in experiment [4] were 54%, 95% and 81%, respectively. In experiment [3], this molecule yielded an MIC of 14 µg/mL (≈ 34.4 µM).

Turning to `FC(F)(F)c1ccc2c(c1)N(CCCN1CCN(c3ncccn3)CC1)c1ccccc1S2`, the Activity in experiment [1] was determined as 94%; in experiment [2] it was 50%; in experiment [4], 85%. This molecule yielded an MIC in experiment [3] of 16 µg/mL (≈ 33.9 µM).

On to `OC1CCN(CCCN2c3ccccc3Sc3ccc(C(F)(F)F)cc32)C1` (centres undefined), for which the values for the Activity in experiment [1], in experiment [2] and in experiment [4] were 62%, 74% and 95%, respectively. Besides, the MIC in experiment [3] came out at 11 µg/mL (≈ 27.9 µM).

Consider `CN1CCCC(CN2c3ccccc3Sc3ccccc32)C1` (centres undefined) [MEPAZINE], for which the Activity in experiment [1] was determined as 0%; in experiment [2], 88%; in experiment [4] it was 29%. This molecule yielded an MIC in experiment [3] of 17 µg/mL (≈ 54.8 µM).

(Values after ChEMBL document CHEMBL1147957, “Synthesis and antitubercular activity of phenothiazines with reduced binding to dopamine and serotonin receptors” (2007).)
